We go through four compounds from patent US6180767A, “Peptide nucleic acid conjugates” (Thomas Jefferson University, priority 1997, dated 2001).

Where no end group is shown, it is not given here.

Data set [1] relates to P6 cells (murine Balb/c3T3 cells transfected with human IGF1R gene). Description: Cellular uptake of fluoresceinated compounds, confocal fluorescence microscopy. In kind it is cell-based. To be noted: 1 μM, 4 hours at 37° C., serum-free DMEM. As to the method:
P6 cells, which are murine Balb/c3T3 cells transfected with human insulin-like growth factor receptor (IGF1R) gene, overexpress IGF1R. The cells were plated on LAB TEK 8 well tissue culture "CHAMBER SLIDES" from Nunc, Inc., Naperville, Ill. in 10% FBS/DMEM at a concentration of 20,000 cells/chamber. The cells were allowed to attach and grow for 24 hours in a humidified cell incubator with 5% CO2 at 37° C. The attached cells were then washed with serum-free DMEM and PBS. The cells were incubated for 4 hours at 37° C. with 1 μM of the fluoresceinated PNA-peptide (H-Gly-SEQ ID NO:5/SEQ ID NO: 1) or fluoresceinyl-PNA (H-Gly-SEQ ID NO:5-CONH2) in serum-free DMEM. Human Jurkat cells, which have very low copies of IGF1R (Lal et al., Leukemia Res. 17, 31-35, 1983) were used as a negative control. The Jurkat cells were grown in 10% FBS/RPMI. The Jurkat cells were treated in the same manner as the P6 cells, except that necessary modifications were made in handling the cells as they grow in suspension. […]
The fixed slides were analyzed under laser confocal fluorescence and phase contrast microscopy to observe the cellular uptake of the fluorescent oligomers. […] This is an advantage over conventional fluorescence microscopy, which cannot differentiate between signals inside and outside of the cells.

Data set [2] relates to tumor cell lines dependent on IGFR1. To be noted: Pietrzkowski et al., Cancer Res. 52, 6447-6451, 1992; cited from earlier work.
The next data set deals with IGF1-R (Homo sapiens, UniProt P08069). To be noted: Pietrzkowski et al., Cancer Res. 52, 6447-6451, 1992; cited from earlier work.
Chain of IGF1-R (P08069 31-736 limits assumed): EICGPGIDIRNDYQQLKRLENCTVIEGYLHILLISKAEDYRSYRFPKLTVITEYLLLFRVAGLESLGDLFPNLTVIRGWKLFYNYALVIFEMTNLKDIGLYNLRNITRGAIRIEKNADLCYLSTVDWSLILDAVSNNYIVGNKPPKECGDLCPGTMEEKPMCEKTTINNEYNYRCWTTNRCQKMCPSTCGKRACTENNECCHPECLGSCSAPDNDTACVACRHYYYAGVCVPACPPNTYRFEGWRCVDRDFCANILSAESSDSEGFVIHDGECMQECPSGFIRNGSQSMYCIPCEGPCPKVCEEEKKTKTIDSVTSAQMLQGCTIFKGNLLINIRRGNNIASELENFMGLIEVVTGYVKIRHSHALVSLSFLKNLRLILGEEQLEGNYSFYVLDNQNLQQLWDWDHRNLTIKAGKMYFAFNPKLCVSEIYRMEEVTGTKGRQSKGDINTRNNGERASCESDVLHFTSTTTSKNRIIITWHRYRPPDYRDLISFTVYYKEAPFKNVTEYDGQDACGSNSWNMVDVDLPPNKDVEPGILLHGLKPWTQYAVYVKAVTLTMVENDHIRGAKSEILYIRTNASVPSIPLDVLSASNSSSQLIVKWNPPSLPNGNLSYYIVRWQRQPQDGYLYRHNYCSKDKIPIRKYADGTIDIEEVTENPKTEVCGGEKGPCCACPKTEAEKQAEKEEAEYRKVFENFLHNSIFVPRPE
Chain of IGF1-R (P08069 741-1367 partner limits assumed): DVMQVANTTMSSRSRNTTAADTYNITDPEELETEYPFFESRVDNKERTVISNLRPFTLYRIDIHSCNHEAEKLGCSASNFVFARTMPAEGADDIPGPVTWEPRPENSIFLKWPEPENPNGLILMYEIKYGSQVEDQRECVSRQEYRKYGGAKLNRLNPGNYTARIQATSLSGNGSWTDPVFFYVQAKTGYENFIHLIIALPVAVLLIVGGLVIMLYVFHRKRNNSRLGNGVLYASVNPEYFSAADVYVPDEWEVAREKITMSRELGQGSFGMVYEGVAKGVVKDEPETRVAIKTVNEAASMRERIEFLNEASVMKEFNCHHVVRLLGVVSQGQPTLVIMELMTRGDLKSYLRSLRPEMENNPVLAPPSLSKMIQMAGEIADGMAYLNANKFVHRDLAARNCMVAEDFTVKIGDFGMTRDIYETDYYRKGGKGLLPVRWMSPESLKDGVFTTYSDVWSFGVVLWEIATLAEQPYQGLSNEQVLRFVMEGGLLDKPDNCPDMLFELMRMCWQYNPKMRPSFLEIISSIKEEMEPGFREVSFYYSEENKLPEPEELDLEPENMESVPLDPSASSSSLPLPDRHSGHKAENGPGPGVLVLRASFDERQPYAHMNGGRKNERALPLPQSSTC
A short description of data set [3]: Serum stability of the PNA-peptide conjugate. It is filed as in vitro ADME. To be noted: 10% fetal bovine serum/PBS, 12 hours and 24 hours, reverse phase HPLC. How it is done: The title conjugate was incubated in 10% fetal bovine serum/PBS for 12 hours and 24 hours. After the incubation, one volume of acetonitrile was added to precipitated protein, which was pelleted by centrifugation. Free conjugate in the supernatant was dried under vacuo. It was then analyzed by reverse phase HPLC as described above.

A further data set deals with P6 cells. Description: Cellular uptake of [14C]PNA derivatives. It is filed as cell-based, murine. To be noted: 1 μM 14C-labeled derivatives, FIG. 6. How it is done: (§1) Uptake studies with radiolabeled PNA derivatives were carried out. P6 or Jurkat cells above were plated in 12.5 cm^2 flasks and grown for two days to 50-80% confluence, on the order of 10^6 cells per flask. The medium was then removed and replaced with fresh medium containing 1 μM of the various [^14 C]PNA derivatives, pre-warmed to 37° C.; background cells received medium with no [^14 C]PNA derivatives. After incubation for various times, attached cells were washed directly in the flasks using four washes--once with fresh medium, once with PBS, once with high salt/low pH buffer, and once with PBS. […]
(§2) After the final wash, the cells were lysed in 1 ml of 1% SDS in H2 O, and the samples were processed for total protein measurement and liquid scintillation counting. 50 μl of the lysate was allocated for total protein measurement, and ^14 C activity in the remaining lysate was measured by liquid scintillation counting, from which background counts were subtracted. […]
(§3) Control samples of varying confluence were trypsinized following the last wash, resuspended in PBS for cell counting, and then lysed to obtain total protein values. […] The curve was used to estimate cell counts from the total protein measurements of treated cells, and radioactivity counts were used to calculate pmoles of oligonucleotide using the specific activity of each labeled oligonucleotide. […]

A further data set concerns Balb/c3T3 cells. Description: Cellular uptake of [14C]PNA derivatives. To be noted: Balb/c3T3 cells (low levels of IGF1R), 14C-labeled derivatives, FIG. 7. In kind it is cell-based, murine.
A further data set has as its system Jurkat cells. Description: Cellular uptake of [14C]PNA derivatives. In kind it is cell-based, Human. To be noted: Jurkat cells (virtually no IGF1R), 1 μM 14C-labeled derivatives, FIG. 8. How it is done:
as §1, §2, §3

Consider `O=C1OC2(c3ccc(O)cc3Oc3cc(O)ccc32)c2ccccc21` [fluorescein], for which the “cellular uptake (fluorescence within the cells)” value in data set [1] is given as “absence of uptake”.

With “CSKAPKLPAAYC (cysteine pairing not given here) [SEQ ID NO:8]”, the “inhibition of proliferation/growth of tumor cell lines” value in data set [2] is “inhibits the growth of certain cancer cell lines”. Also, the “competition with the natural ligand for binding to IGF1-R” value in the data set with IGF1-R is listed as “competes with the natural ligand for binding to IGF1-R”.

As to “GCSKAPKLPAALC (cysteine pairing not given here) [SEQ ID NO:4]”, the “inhibition of proliferation/growth of tumor cell lines” value in data set [2] was “inhibits the proliferation of tumor cell lines dependent on IGFR1”.

In the case of “H-Gly-CCGCTTCCTTTC-Gly-Gly-Gly-Gly-D-Cys-D-Ser-D-Lys-D-Cys-NH2 [title PNA-peptide conjugate]”, the “stability of the conjugate in serum” value in data set [3] was “stability of the conjugate was confirmed”. Also, the “uptake relative to control PNA or control PNA-peptide” value with P6 cells is “five-fold more uptake”. In addition, the “uptake relative to the controls” value in the data set with Balb/c3T3 cells was “four-fold excess”; with Jurkat cells it was “little preferential uptake”.
